Test results: patent US7763596B2, “Selective glucocorticoid receptor agonists” (The University of Manchester, priority 2000, dated 2010)
Entries after “also recorded” stand apart in the source; their conditions may differ.

Key:
Format in all cases: cell-based
glucocorticoid receptor [1] = target: T1, glucocorticoid receptor (Homo sapiens, UniProt P04150); test: Transactivation assay using artificially expressed glucocorticoid receptor in the COS 7 monkey kidney cell line (GRE luciferase); set-up: expressed in transfected cells; host or cells: COS 7 (African green monkey kidney, deficient in endogenous GR); conditions: for ability to transactivate (luminescence) compared to dexamethasone: 1, 10 and 100 nM, FIGS. 3 and 4; for transactivation potential (luminescence) compared to dexamethasone, repeat experiment: 1, 10, 10 and 500 nM, FIG. 5
T1 sequence (P04150 1-777): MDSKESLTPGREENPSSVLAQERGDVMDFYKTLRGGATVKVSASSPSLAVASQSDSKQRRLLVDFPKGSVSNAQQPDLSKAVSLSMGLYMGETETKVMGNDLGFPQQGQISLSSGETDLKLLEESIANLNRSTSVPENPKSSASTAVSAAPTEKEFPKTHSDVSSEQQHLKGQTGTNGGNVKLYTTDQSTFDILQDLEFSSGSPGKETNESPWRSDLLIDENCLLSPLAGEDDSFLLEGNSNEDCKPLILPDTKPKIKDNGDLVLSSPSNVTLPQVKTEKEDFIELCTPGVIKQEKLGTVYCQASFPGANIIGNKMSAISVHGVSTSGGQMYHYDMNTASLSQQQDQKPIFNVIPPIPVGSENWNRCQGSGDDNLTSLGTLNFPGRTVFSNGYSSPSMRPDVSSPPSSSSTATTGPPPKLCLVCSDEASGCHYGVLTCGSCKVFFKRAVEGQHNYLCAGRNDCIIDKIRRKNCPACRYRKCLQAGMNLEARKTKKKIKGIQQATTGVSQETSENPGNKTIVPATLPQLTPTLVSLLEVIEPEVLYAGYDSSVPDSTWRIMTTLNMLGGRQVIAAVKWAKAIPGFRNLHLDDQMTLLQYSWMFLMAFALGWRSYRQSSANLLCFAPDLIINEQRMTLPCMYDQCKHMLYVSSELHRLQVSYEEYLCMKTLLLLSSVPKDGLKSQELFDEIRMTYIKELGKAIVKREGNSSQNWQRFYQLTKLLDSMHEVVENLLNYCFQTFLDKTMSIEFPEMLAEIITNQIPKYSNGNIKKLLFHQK
Procedure: (§1) All transfections were performed using lipofectamine plus (Gibco BRL), according to the manufacturers' instructions, as previously described^1. Briefly, all cells were seeded at 5×10^5 per 10 cm tissue culture plate 18 hours before transfection, the next day the relevant plasmids were mixed with serum free medium and “Plus” reagent (Gibco BRL) and incubated for 15 mins, lipofectamine reagent was added and the mix was incubated for a further 15 mins, this mix was added to the cells on serum free medium in the 10 cm tissue culture plates and left for 3 hours, the cells were then trypsinised and divided into 24 well plates, the cells were left to recover overnight and were treated with steroid for 16 hours before harvest. All experiments were performed from one transfection in triplicate and on separate occasions with similar results.
(§2) The firefly luciferase gene catalyses the production of light from the substrate luciferin. When plasmid constructs containing this gene are transfected into cell lines the activity of the gene can be assessed by the intensity of the luminesence. The luciferase assay yields luminescence through an ATP-dependent oxidation of luciferin the amount of light produced can be measured by a luminometer and is a measure of gene activity (Davis, 1996). Light intensity was measured in a Luminometer (LB 9501, Berthold). The light intensity should be proportional to luciferase concentration in the range of 10^−16M (10 μg/L) to 10^−8M (1 mg/L). To measure the luminescence of the treated cells 150 μl of 1× reporter lysis buffer (RLB: 25 mM Tris phosphate pH7.8, 10 mM MgCl2, 15% Glycerol, 1% Triton, 1 mM EDTA) was added to the 24 well plates to lyse the cells and incubated at room temperature for 30 mins whilst being shaken. Then 100 μl of the room temperature cell extract were mixed with 100 μl of room temperature Luciferase Assay Reagent (LAR: 1 mM ATP, 0.3 mM D-Luciferin, 66% RLB). This reaction was mixed in a luminometer (LB 9501, Berthold) and the light produced was measured for a period of 5 seconds.
In this assay the GR was artificially expressed in a cell line lacking endogenous GR and a glucocorticoid response element (GRE) “driving” a luciferase reporter gene was used to measure ligand dependent activation.
COS7 cells were transfected with 1 μg pcDNA3-GR and 3 μg AH3-Luc per 10 cm tissue culture dish. The cells were plated out in to 24 well plates after transfection and the steroids were added immediately. After 18 hour incubation the cells were lysed and a luciferase assay was performed.

glucocorticoid receptor [2] = target: T1, glucocorticoid receptor; test: Transrepression assay using artificially expressed glucocorticoid receptor and P65 in the COS 7 cell line (NRE luciferase); set-up: expressed in transfected cells; host or cells: COS 7 (African green monkey kidney, deficient in endogenous GR); conditions: 1, 10 and 100 nM
Procedure: as §1, §2
To perform this assay the GR and p65 were artificially expressed in a cell line lacking GR and deficient in endogenous P65. The ability of P65 to activate an NFkB response element (NRE) “driving” a luciferase reporter gene could then be repressed by GR in a ligand dependent manner and, therefore, used to measure transrepression.
COS7 cells were transfected with 1 μg pcDNA3-GR and 3 μg NRE-Luc and 200 ng p65 per 10 cm tissue culture dish. The cells were plated out in to 24 well plates after transfection and left for 18 hours to recover before the steroids of FIGS. 1 and 2A were added. After another 18 hour incubation the cells were lysed and a luciferase assay was performed.

[3] = target: T2, GR ligand binding domain / SRC-1 (Homo sapiens, UniProt P04150); test: SRC-1 association assay by mammalian two-hybrid analysis; conditions: for SRC-1 recruitment at the highest concentration tested: 100 nM
T2 construct: expressed in transfected cells
T2 sequence (P04150 524-758 limits assumed): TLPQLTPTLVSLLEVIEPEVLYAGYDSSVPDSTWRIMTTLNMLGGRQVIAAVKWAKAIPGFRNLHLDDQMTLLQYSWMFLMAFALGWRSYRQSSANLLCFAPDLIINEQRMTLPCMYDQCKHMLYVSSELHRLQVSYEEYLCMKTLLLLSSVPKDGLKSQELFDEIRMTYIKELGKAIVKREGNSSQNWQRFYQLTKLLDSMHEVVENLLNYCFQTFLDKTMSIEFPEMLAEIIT
Description: SRC-1 is an important co-activator of GR action that associates with the GR in a ligand dependant manner. The ability of SRC-1 to associate with the GR in this manner can be used as a measure of potency of ligand mediated transactivation. To perform this assay plasmids that generated VP16-GR ligand binding domain (LBD) and GAL4-SRC-1 fusion proteins and a GAL4 binding luciferase reporter gene construct were transfected into in a cell line lacking GR and deficient in endogenous SRC-1. The GAL4-SRC-1 fusion protein could bind to specific sites upstream of the luciferase reporter gene construct. If the SRC-1 fusion protein associated with the ligand bound VP16-GRLBD fusion protein then the VP-16 activation domain augmented the luciferase gene expression.

SMILES	ability to transactivate (luminescence) compared to dexamethasone (glucocorticoid receptor [1])	repression of P65 stimulation of an NFkB response element compared with dexamethasone (glucocorticoid receptor [2])	SRC-1 recruitment compared with dexamethasone ([3]; 1, 10 and 100 nM)	SRC-1 recruitment, sub-maximal response ([3]; 1, 10 and 100 nM, relative to dexamethasone) [%]	SRC-1 recruitment at the highest concentration tested [3]	transactivation potential (luminescence) compared to dexamethasone, repeat experiment (glucocorticoid receptor [1])	transactivation as measured by SRC-1 recruitment ([3]; 1 and 10 nmolar)
Cc1ccc(NC(=O)C2(O)C(C)CC3C4CCC5=CC(=O)C=CC5(C)C4(F)C(O)CC32C)cc1 (stereo not shown) [Compound O]	failed to generate a response at any concentration	failed completely to repress P65 function					
CC1CC2C3CCC4=CC(=O)C=CC4(C)C3(F)C(O)CC2(C)C1(O)C(=O)COC(=O)c1ccc(F)cc1 (stereo not shown) [Compound D]	more active in causing transactivation than dexamethasone	as potent as dexamethasone	recruited SRC-1 to the same extent as dexamethasone				
CC1CC2C3CCC4=CC(=O)C=CC4(C)C3(F)C(O)CC2(C)C12OC(C)(C)OCC2=O (stereo not shown) [Compound A]		less potent than dexamethasone but produced the same maximal response at 100 nM		~50			
CCCOC(=O)C1(O)C(C)CC2C3CCC4=CC(=O)C=CC4(C)C3(F)C(O)CC21C (stereo not shown) [R]	failed to generate a response at any concentration	failed completely to repress P65 function			significant response		
CC1CC2C3CCC4=CC(=O)C=CC4(C)C3(F)C(O)CC2(C)C1(O)C(=O)NCCC(=O)O (stereo not shown) [Q]	failed to generate a response at any concentration	no effect at 1 and 10 nM with only a negligible repression at 100 nM					
CCCCCCNC(=O)OCC(=O)C1(O)C(C)CC2C3CCC4=CC(=O)C=CC4(C)C3(F)C(O)CC21C (stereo not shown) [Compound T]		“left shifted” response and greater maximal repression			significant response	“right shifted response” and a reduced maximum compared to dexamethasone	
CCCNC(=O)C1(O)C(C)CC2C3CCC4=CC(=O)C=CC4(C)C3(F)C(O)CC21C (stereo not shown) [Compound G]	much less potent and had a lower maximal effect when compared to dexamethasone	“left shifted” response and greater maximal repression			no SRC-1 recruitment	“right shifted response” and a reduced maximum compared to dexamethasone; also recorded: lowest overall maximal response	no transactivation as measured by SRC-1 recruitment
CC1CC2C3CCC4=CC(=O)C=CC4(C)C3(F)C(O)CC2(C)C1(O)C(=O)NCCCO (stereo not shown) [L]	failed to generate a response at any concentration	failed completely to repress P65 function					
